From ChEMBL document CHEMBL1201862, “PubChem BioAssay data set” (2004) come the findings set out here.

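Assay format: 96-well plates, 48-hour exposure. The concentration for 50% growth inhibition is given as GI50.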 Activity calls are given as the source filed them. Cut-off read from the data, not from the text of the source: active = GI50 up to about 1.1 µM and inactive = higher.

Assay in all cases: NCI tumour cell line growth inhibition, 48 h
The subject of assay [1] is 786-0.
Assay [2] has as its system COLO 205.
The subject of assay [3] is DU-145.
Assay [4] deals with HCT-15.
Assay [5] has as its system HL-60.
For assay [6], the system named is HT-29.
Assay [7] has as its system KM12.
The test system of assay [8] is M14.
The test system of assay [9] is MCF7.
Assay [10] deals with MDA-N.
For assay [11], the system named is MOLT-4.
Assay [12] has as its system NCI-H522.
The subject of assay [13] is OVCAR-4.
The subject of assay [14] is SF-295.
Assay [15] concerns SF-539.
Assay [16] has as its system SK-MEL-5.
Assay [17] relates to SNB-75.
For assay [18], the system named is TK-10.
Assay [19] has as its system UACC-257.
In assay [20] the test system is NCI-H226.

`Nc1ccc(-c2nc3ccccc3s2)cc1Br`: the GI50 is 76.9 µM (inactive) in [1]; > 100 µM (inactive) in assay [2]; > 100 µM (inactive) in assay [3]; 62.8 µM in assay [4]; > 100 µM (inactive) in assay [5]; > 100 µM (inactive) in assay [6]. In addition, the GI50 was > 92.9 µM (inactive) in [7]; 97.9 µM (inactive) in assay [8]; < 0.01 µM (active) in [9]; > 100 µM (inactive) in assay [10]; 31.4 µM (inactive) in [11]; > 100 µM (inactive) in assay [12]. Also, the GI50 was > 100 µM (inactive) in [13]; 66.7 µM (inactive) in [14]; > 51.3 µM (inactive) in [15]; > 100 µM (inactive) in assay [16]; 31.3 µM (inactive) in [17]; 0.0141 µM (active) in [18]. Also, the GI50 in assay [19] was > 100 µM (inactive).

Consider `CCOP(=O)(CN1CCNCCN(CP(=O)(OCC)OCC)CC1)OCC`, for which the GI50 in assay [1] is > 100 µM (inactive); in assay [2], > 100 µM (inactive); in assay [3], > 100 µM (inactive); in assay [4] it was more than 100 µM; in [6], > 100 µM (inactive); in assay [7], > 100 µM (inactive). Further, the GI50 in assay [8], in assay [9], in assay [10], in [11], in [20] and in assay [12] was > 100 µM (inactive) throughout. The GI50 in [13], in assay [14], in assay [15], in assay [16], in [17] and in assay [18] was > 100 µM (inactive) each time. Moreover, the GI50 in assay [19] was > 100 µM (inactive).

Consider `CCOc1cc(NC(C)=O)ccc1C(=O)NN1C(=O)C(Oc2ccccc2)C1c1ccc(O)c(OC)c1` (stereo not given), for which the GI50 in assay [1] was 43.8 µM (inactive); in assay [2] it was 30.3 µM (inactive); in [3], 78 µM (inactive); in [4] it was 32.8 µM; in assay [5] it was 19.8 µM (inactive); in [6] it was 36.7 µM (inactive). The GI50 in assay [7] is 39.1 µM (inactive); in assay [8], 52.1 µM (inactive); in [9] it was 39.5 µM (inactive); in assay [10], 33.6 µM (inactive); in [11] it was 12.9 µM (inactive); in [20], 34.2 µM (inactive). The GI50 was 31.3 µM (inactive) in assay [13]; 66.4 µM (inactive) in [14]; 28.1 µM (inactive) in assay [15]; 19.1 µM (inactive) in [16]; 44.6 µM (inactive) in assay [17]; 40.8 µM (inactive) in assay [18]. Also, the GI50 in assay [19] was 47 µM (inactive).

For the compound `N#Cc1c(N)c(C#N)c2c(c1-c1ccc(Cl)cc1)COc1ccccc1-2`, the GI50 is 3.02 µM (inactive) in [1]; 48 µM (inactive) in [2]; 21.6 µM (inactive) in assay [3]; 31.8 µM in [4]; 25.4 µM (inactive) in [5]; 13.2 µM (inactive) in assay [6]. Besides, the GI50 was 28.6 µM (inactive) in [7]; 38.6 µM (inactive) in assay [8]; 29 µM (inactive) in [9]; 18.5 µM (inactive) in [10]; 11.4 µM (inactive) in [11]; 32.1 µM (inactive) in [20]. Moreover, the GI50 in assay [13] was 11.1 µM (inactive); in assay [15], 18.5 µM (inactive); in [16], 22 µM (inactive); in assay [18] it was 14.6 µM (inactive); in assay [19], 44.1 µM (inactive).

For the compound `Cc1cc2nc(C=C(C(F)(F)F)C(F)(F)F)oc2cc1C`, the GI50 in [1] was 1.96 µM (inactive); in [2], 0.199 µM (active); in [3], 5.64 µM (inactive); in assay [4], 3.37 µM; in assay [5], 2.03 µM (inactive); in assay [6] it was 3.04 µM (inactive). Also, the GI50 was > 10 µM (inactive) in [7]; 2.51 µM (inactive) in [8]; 0.472 µM (active) in assay [9]; > 10 µM (inactive) in [10]; 1.85 µM (inactive) in [11]; 3.12 µM (inactive) in [12]. Also, the GI50 was 3.18 µM (inactive) in [13]; > 10 µM (inactive) in assay [14]; 2.88 µM (inactive) in [15]; > 10 µM (inactive) in [16]; 4.55 µM (inactive) in assay [17]; 2.45 µM (inactive) in assay [18]. Also, in assay [19], the GI50 was > 10 µM (inactive).

Turning to `N#CC(NNC(=O)c1c(Cl)c(Cl)c(Cl)c(Cl)c1-c1nc2cc(C(=O)c3ccccc3)ccc2[nH]1)c1cccc(Oc2ccccc2)c1` (stereo not given), the GI50 was 22 µM (inactive) in [1]; 20.8 µM (inactive) in [2]; 28.3 µM (inactive) in [3]; 18.4 µM in [4]; 28.3 µM (inactive) in assay [5]; 27.4 µM (inactive) in assay [6]. Further, the GI50 in assay [7] is 36.6 µM (inactive); in [8] it was 25.6 µM (inactive); in [9], 20.3 µM (inactive); in [10] it was 15.4 µM (inactive); in [11], 24.3 µM (inactive); in assay [20] it was 21.3 µM (inactive). The GI50 is 18.6 µM (inactive) in [13]; 28.5 µM (inactive) in [14]; 20.7 µM (inactive) in assay [15]; 15.4 µM (inactive) in assay [16]; 23.7 µM (inactive) in [17]; 31.3 µM (inactive) in assay [18]. In [19], the GI50 was 38.1 µM (inactive).

For the compound `CCOC(=O)C1(C(=O)OCC)Nc2cccnc2N(C)N1`, the GI50 in [1] is 17.9 µM (inactive); in assay [2] it was 11.6 µM (inactive); in [3], 18.7 µM (inactive); in assay [4] it was 18 µM; in assay [5], 22.8 µM (inactive); in assay [6], 14.7 µM (inactive). The GI50 was 50.1 µM (inactive) in [7]; 19.3 µM (inactive) in assay [8]; 16.3 µM (inactive) in assay [9]; 17.5 µM (inactive) in assay [10]; 12.4 µM (inactive) in assay [11]; 18.4 µM (inactive) in [20]. In addition, the GI50 in assay [13] is 17.7 µM (inactive); in assay [14] it was > 100 µM (inactive); in assay [15], 16.6 µM (inactive); in assay [16], 17.4 µM (inactive); in assay [17] it was > 100 µM (inactive); in assay [18], 20.9 µM (inactive). Moreover, in [19], the GI50 was 17.6 µM (inactive).

`COc1nc(SC)nc2c1C(O)n1c(nc3ccccc31)S2` (stereo not given): the GI50 in [1] was 6.65 µM (inactive); in [3] it was 53.7 µM (inactive); in [4], 33.5 µM; in [5], 12.3 µM (inactive); in assay [6], 35.9 µM (inactive); in assay [7] it was 25.4 µM (inactive). In addition, the GI50 in assay [8] was 60.4 µM (inactive); in [9] it was 1.84 µM (inactive); in [10] it was 40.4 µM (inactive); in [11], 4.15 µM (inactive); in assay [12], 23 µM (inactive); in assay [13], 17.4 µM (inactive). Moreover, the figures for the GI50 in assay [14], in assay [18] and in [19] were 20.7 µM (inactive), 23.7 µM (inactive) and 59.6 µM (inactive), respectively.

Take `CC(C)/C(Cl)=N\OC(=O)Nc1ccccc1F`: the GI50 in [1] is 16.4 µM (inactive); in assay [2], 2.03 µM (inactive); in assay [3] it was 16.4 µM (inactive); in assay [4] it was 16.2 µM; in assay [5] it was 1.68 µM (inactive); in [6], 24.3 µM (inactive). The GI50 in assay [7] was 20.8 µM (inactive); in [8] it was 5.73 µM (inactive); in assay [9], 5.64 µM (inactive); in [10], 16.6 µM (inactive); in assay [11], 2.82 µM (inactive); in assay [20], 15.1 µM (inactive). In addition, the GI50 was 17.3 µM (inactive) in [13]; 16.3 µM (inactive) in [14]; 17.3 µM (inactive) in [15]; 14.5 µM (inactive) in [16]; 10.2 µM (inactive) in assay [17]; 14.5 µM (inactive) in assay [18]. In addition, the GI50 in assay [19] was 18.3 µM (inactive).

Regarding `S=C(Nc1ccc(Cl)cc1)c1ccc(CN2CCCCC2)s1`, the GI50 is 4.25 µM (inactive) in [1]; 2.68 µM (inactive) in [2]; 19.8 µM (inactive) in assay [3]; 4.72 µM in assay [4]; 1.81 µM (inactive) in assay [5]; 3.5 µM (inactive) in assay [6]. Besides, the GI50 was 5.43 µM (inactive) in [7]; 4.09 µM (inactive) in assay [8]; 13.9 µM (inactive) in [9]; 2.94 µM (inactive) in [10]; 2.77 µM (inactive) in assay [11]; 21.9 µM (inactive) in [12]. Besides, the GI50 in assay [13] is 12.5 µM (inactive); in assay [15] it was 24.9 µM (inactive); in [16], 3.08 µM (inactive); in assay [19], 10.6 µM (inactive).

Turning to `CC1(C)OCC2(CO1)CSCCCSCC1(COC(C)(C)OC1)CSCCCSC2`, the GI50 in [1] is > 100 µM (inactive); in assay [2] it was > 100 µM (inactive); in assay [3], > 100 µM (inactive); in [4] it was more than 100 µM; in assay [5], > 100 µM (inactive); in assay [6], > 100 µM (inactive). The GI50 in assay [7] is > 100 µM (inactive); in assay [8], > 100 µM (inactive); in [9], > 10 µM (inactive); in assay [10], > 100 µM (inactive); in [11], > 100 µM (inactive); in [12], > 100 µM (inactive). The GI50 in assay [13] is > 100 µM (inactive); in [14] it was > 100 µM (inactive); in assay [15] it was > 100 µM (inactive); in assay [16], > 100 µM (inactive); in [17], 90.6 µM (inactive); in [18], > 100 µM (inactive). Besides, in assay [19], the GI50 was > 100 µM (inactive).
